Reference: patent publication US20210269434A1, “TRICYCLIC COMPOUNDS AS INHIBITORS OF KRAS” (Incyte Corporation, priority 2020, published 2021)
Where two headings read alike, the source gives them in different places. Each block holds one compound with its values, some of them ahead of it.

Experiments:
KRAS G12C = KRAS G12C (Homo sapiens, UniProt P01116, G12C); test: GDP-GTP exchange assay (KRAS_G12C exchange); assay type: biochemical; settings: bodipy-GDP loaded KRAS G12C 2.5 nM, SOS1 150 nM, GppNHp; 2 hours pre-incubation, 2 hours reaction; read-out: G12C_exchange
KRAS G12C, sequence (P01116 1-188 isoform P01116-2 G12C): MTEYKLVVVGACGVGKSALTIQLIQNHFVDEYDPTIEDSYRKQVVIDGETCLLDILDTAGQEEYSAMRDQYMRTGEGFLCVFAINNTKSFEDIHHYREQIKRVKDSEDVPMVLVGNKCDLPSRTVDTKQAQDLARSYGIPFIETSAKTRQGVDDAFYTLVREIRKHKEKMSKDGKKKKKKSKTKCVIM
Description: Example A. GDP-GTP Exchange Assay
The inhibitor potency of the exemplified compounds was determined in a fluorescence based guanine nucleotide exchange assay, which measures the exchange of bodipy-GDP (fluorescently labeled GDP) for GppNHp (Non-hydrolyzable GTP analog) to generate the active state of KRAS in the presence of SOS1 (guanine nucleotide exchange factor). Inhibitors were serially diluted in DMSO and a volume of 0.1 μL was transferred to the wells of a black low volume 384-well plate. 5 μL/well volume of bodipy-loaded KRAS G12C diluted to 5 nM in assay buffer (25 mM Hepes pH 7.5, 50 mM NaCl, 10 mM MgCl2 and 0.01% Brij-35) was added to the plate and pre-incubated with inhibitor for 2 hours at ambient temperature. Appropriate controls (enzyme with no inhibitor or with a G12C inhibitor (AMG-510)) were included on the plate. The exchange was initiated by the addition of a 5 μL/well volume containing 1 mM GppNHp and 300 nM SOS1 in assay buffer. The 10 μL/well reaction concentration of the bodipy-loaded KRAS G12C, GppNHp, and SOS1 were 2.5 nM, 500 uM, and 150 nM, respectively. The reaction plates were incubated at ambient temperature for 2 hours, a time estimated for complete GDP-GTP exchange in the absence of inhibitor. For the KRAS G12D and G12V mutants, similar guanine nucleotide exchange assays were used with 2.5 nM as final concentration for the bodipy loaded KRAS proteins and with 4 hours and 3 hours incubation after adding GppNHp-SOS1 mixture for G12D and G12V respectively. A cyclic peptide described to selectively bind G12D mutant (Sakamoto et al., BBRC 484.3 (2017), 605-611) or internal compounds with confirmed binding were used as positive controls in the assay plates. Fluorescence intensities were measured on a PheraStar plate reader instrument (BMG Labtech) with excitation at 485 nm and emission at 520 nm.
Either GraphPad prism or XLfit was used to analyze the data. The IC50 values were derived by fitting the data to a four parameter logistic equation producing a sigmoidal dose-response curve with a variable Hill coefficient. Prism equation: Y=Bottom+(Top−Bottom)/(1+10^((Log lC50−X)*Hill slope)); XLfit equation: Y=(A+((B−A)/(1+((X/C)^D)))) where X is the logarithm of inhibitor concentration and Y is the response.

[1] = tested on: MIA PaCa-2 (KRAS G12C) cells; test: Cellular pERK HTRF assay (KRAS_G12C pERK); assay type: cell-based, human; settings: read-out: G12C_pERK
Description: Example C: Cellular pERK HTRF Assay
MIA PaCa-2 (KRAS G12C; ATCC® CRL-1420), A427 (KRAS G12D; ATCC® HTB53), HPAF-II (KRAS G12D; ATCC® CRL-1997) and NCI-H838 (KRAS WT; ATCC® CRL-5844) cells are purchased from ATCC and maintained in RPMI 1640 media supplemented with 10% FBS (Gibco/Life Technologies). The cells are plated at 5000 cells per well (8 uL) into Greiner 384-well low volume, flat-bottom, tissue culture treated white plates and incubated overnight at 37° C., 5% CO2. The next morning, test compound stock solutions are diluted in media at 3× the final concentration, and 4 uL are added to the cells. The plate is mixed by gentle rotation for 30 seconds (250 rpm) at room temperature. The cells are incubated with the KRAS G12C and G12D compounds for 4 hours or 2 hours respectively at 37° C., 5% CO2.
4 uL of 4× lysis buffer with blocking reagent (1:25) (Cisbio) are added to each well and plates are rotated gently (300 rpm) for 30 minutes at room temperature. 4 uL per well of Cisbio anti Phospho-ERK 1/2 d2 is mixed with anti Phospho-ERK 1/2 Cryptate (1:1) are added to each well, mixed by rotation and incubated overnight in the dark at room temperature. Plates are read on the Pherastar plate reader at 665 nm and 620 nm wavelengths. IC50 determination is performed by fitting the curve of inhibitor percent inhibition versus the log of the inhibitor concentration using the GraphPad Prism 7 software.

[2] = Homo sapiens, MIA PaCa-2, 4 hours incubation

Compound: C=CC(=O)N1CCC(n2cnc3c(OC[C@@H]4CCCN4C)nc4c(F)c(-c5c(C)ccc6[nH]ncc56)c(Cl)cc4c32)CC1CC#N (single isomer, unassigned) [Example 37a]
IC50 (KRAS G12C): ≤ 100 nM | IC50 [1, 2]: ≤ 100 nM

Compound: C=CC(=O)N1CCC(n2cnc3c(OC[C@@H]4CCCN4C)nc4c(F)c(-c5cc(O)ccc5C)c(Cl)cc4c32)CC1CC#N (single isomer, unassigned) [Example 39a]
IC50 (KRAS G12C): ≤ 100 nM | IC50 [1, 2]: ≤ 100 nM

Compound: C=CC(=O)N1CCC(n2cnc3c(OC[C@@H]4CCCN4C)nc4c(F)c(-c5c(C)c(Cl)cc6[nH]ncc56)c(Cl)cc4c32)CC1CC#N (single isomer, unassigned) [Example 40a]
IC50 (KRAS G12C): ≤ 100 nM | IC50 [1, 2]: ≤ 100 nM

Compound: C=CC(=O)N1CC[C@H](n2cnc3c(N4CC(N(C)C)C4)nc4c(F)c(-c5cc(O)cc6ccccc56)c(Cl)cc4c32)C[C@H]1CC#N (single isomer, unassigned) [Example 47a]
IC50 (KRAS G12C): ≤ 100 nM | IC50 [1, 2]: ≤ 100 nM

Compound: C=CC(=O)N1CC[C@H](n2cnc3c(N4CC(N(C)C)C4)nc4c(F)c(-c5cc(O)cc(C)c5C)c(Cl)cc4c32)C[C@H]1CC#N (single isomer, unassigned) [Example 52a]
IC50 (KRAS G12C): ≤ 100 nM | IC50 [1, 2]: ≤ 100 nM

Compound: C=CC(=O)N1CC[C@H](n2cnc3c(N4CC(N(C)C)C4)nc4c(F)c(-c5cc(O)ccc5C)c(Cl)cc4c32)C[C@H]1CC#N (single isomer, unassigned) [Example 53a]
IC50 (KRAS G12C): ≤ 100 nM | IC50 [1, 2]: ≤ 100 nM

Compound: C=CC(=O)N1CC[C@H](n2cnc3c(N4CC(N(C)C)C4)nc4c(F)c(-c5cc(O)ccc5Cl)c(Cl)cc4c32)C[C@H]1CC#N (single isomer, unassigned) [Example 54a]
IC50 (KRAS G12C): ≤ 100 nM | IC50 [1, 2]: ≤ 100 nM

Compound: C=CC(=O)N1CC[C@H](n2cnc3c(N4CC(N(C)C)C4)nc4c(F)c(-c5ccc(F)c6cccnc56)c(Cl)cc4c32)C[C@H]1CC#N (single isomer, unassigned) [Example 64a]
IC50 (KRAS G12C): ≤ 100 nM | IC50 [1, 2]: ≤ 100 nM

Compound: C=CC(=O)N1CC[C@H](n2cnc3c(N4CC(N(C)C)C4)nc4c(F)c(-c5cccc6cnccc56)c(Cl)cc4c32)C[C@H]1CC#N (single isomer, unassigned) [Example 70a]
IC50 (KRAS G12C): ≤ 100 nM | IC50 [1, 2]: ≤ 100 nM

Compound: C=CC(=O)N1CC[C@H](n2cnc3c(N4CC(N(C)C)C4)nc4c(F)c(-c5cccc6ccncc56)c(Cl)cc4c32)C[C@H]1CC#N (single isomer, unassigned) [Example 71a]
IC50 (KRAS G12C): ≤ 100 nM | IC50 [1, 2]: ≤ 100 nM

Compound: C=CC(=O)N1CC[C@H](n2cnc3c(N4CC(N(C)C)C4)nc4c(F)c(-c5cccc6ccncc56)c(Cl)cc4c32)C[C@H]1CC#N (single isomer, unassigned) [Example 71b]
IC50 (KRAS G12C): ≤ 100 nM | IC50 ([1]; 4 hours incubation): ≤ 100 nM

Compound: C=CC(=O)N1CC[C@H](n2cnc3c(N4CC(N(C)C)C4)nc4c(F)c(-c5cccc6cccnc56)c(Cl)cc4c32)C[C@H]1CC#N (single isomer, unassigned) [Example 72a]
IC50 (KRAS G12C): ≤ 100 nM | IC50 [1, 2]: ≤ 100 nM

Compound: C=CC(=O)N1CC[C@H](n2cnc3c(N4CC(N(C)C)C4)nc4c(F)c(-c5cncc6ccccc56)c(Cl)cc4c32)C[C@H]1CC#N (single isomer, unassigned) [Example 73a]
IC50 (KRAS G12C): ≤ 100 nM | IC50 [1, 2]: ≤ 100 nM

Compound: C=CC(=O)N1CC[C@H](n2cnc3c(N4CC(N(C)C)C4)nc4c(F)c(-c5cncc6ccccc56)c(Cl)cc4c32)C[C@H]1CC#N (single isomer, unassigned) [Example 73b]
IC50 (KRAS G12C): ≤ 100 nM | IC50 ([1]; 4 hours incubation): ≤ 100 nM

Further lines, results first:

IC50 (KRAS G12C): ≤ 100 nM | IC50 [1, 2]: ≤ 100 nM
Compound: C=CC(=O)N1CC[C@H](n2cnc3c(N4CC(N(C)C)C4)nc4c(F)c(-c5ccnc6ccccc56)c(Cl)cc4c32)C[C@H]1CC#N (single isomer, unassigned) [Example 74a]

IC50 (KRAS G12C): ≤ 100 nM | IC50 [1, 2]: ≤ 100 nM
Compound: COC/C=C/C(=O)N1CC[C@H](n2cnc3c(N4CC(C)(N(C)C)C4)nc4c(F)c(-c5c(C)c(Cl)cc6[nH]ncc56)c(Cl)cc4c32)C[C@H]1CC#N (single isomer, unassigned) [Example 80a]

IC50 (KRAS G12C): ≤ 100 nM | IC50 [1, 2]: ≤ 100 nM
Compound: CC#CC(=O)N1CC[C@H](n2nnc3c(OC[C@@H]4CCCN4C)nc4c(F)c(-c5cccc(Cl)c5C)c(Cl)cc4c32)C[C@H]1CC#N (single isomer, unassigned) [Example 87a]

IC50 (KRAS G12C): ≤ 100 nM | IC50 [1, 2]: ≤ 100 nM
Compound: C=CC(=O)N1CC[C@H](n2cnc3c(OC[C@@H]4CCCN4C)nc4c(F)c(-c5cccc(Cl)c5C)c(Cl)cc4c32)C[C@H]1CC#N (single isomer, unassigned) [Example 118a]

IC50 (KRAS G12C): ≤ 100 nM | IC50 [1, 2]: ≤ 100 nM
Compound: C=CC(=O)N1CC[C@H](n2cnc3c(OC[C@H]4CCCN4C)nc4c(F)c(-c5cccc(Cl)c5C)c(Cl)cc4c32)C[C@H]1CC#N (single isomer, unassigned) [Example 119a]

IC50 (KRAS G12C): ≤ 100 nM | IC50 [1, 2]: ≤ 100 nM
Compound: C=CC(=O)N1CC[C@H](n2nnc3c(N4CC(N(C)C)C4)nc4c(F)c(-c5c(C)c(Cl)cc6c5cnn6C)c(Cl)cc4c32)C[C@H]1CC#N (single isomer, unassigned) [Example 150a]

IC50 (KRAS G12C): ≤ 100 nM | IC50 [1, 2]: ≤ 100 nM
Compound: COC/C=C/C(=O)N1CC[C@H](n2nnc3c(OC[C@@H]4CCCN4C)nc4c(F)c(-c5ccccc5C(F)(F)F)c(C)cc4c32)C[C@H]1CC#N (single isomer, unassigned) [Example 157a]

IC50 (KRAS G12C): ≤ 100 nM | IC50 [1, 2]: ≤ 100 nM
Compound: Cc1cc2c(nc(OC[C@@H]3CCCN3C)c3nnn([C@H]4CCN(C(=O)/C=C/CF)[C@H](CC#N)C4)c32)c(F)c1-c1ccccc1C(F)(F)F (single isomer, unassigned) [Example 159a]

IC50 (KRAS G12C): ≤ 100 nM | IC50 [1, 2]: ≤ 100 nM
Compound: C=CC(=O)N1CC[C@H](n2nnc3c(OC[C@@H]4CCCN4C)nc4c(F)c(-c5ccccc5C(F)(F)F)c(C)cc4c32)C[C@H]1CC#N (single isomer, unassigned) [Example 160a]

IC50 (KRAS G12C): ≤ 100 nM | IC50 [1, 2]: ≤ 100 nM
Compound: Cc1cc2c(nc(N3CC(N(C)C)C3)c3nnn([C@H]4CCN(C(=O)/C=C/CN(C)C)[C@H](CC#N)C4)c32)c(F)c1-c1ccccc1C(F)(F)F (single isomer, unassigned) [Example 163a]

IC50 (KRAS G12C): ≤ 100 nM | IC50 [1, 2]: ≤ 100 nM
Compound: C=CC(=O)N1CC[C@H](n2nnc3c(N4CC(N(C)C)C4)nc4c(F)c(-c5ccccc5C(F)(F)F)c(C)cc4c32)C[C@H]1CC#N (single isomer, unassigned) [Example 165a]

IC50 (KRAS G12C): ≤ 100 nM | IC50 [1, 2]: ≤ 100 nM
Compound: Cc1cc2c(nc(-n3ccnc3C)c3nnn([C@H]4CCN(C(=O)/C=C/CN(C)C)[C@H](CC#N)C4)c32)c(F)c1-c1ccccc1C(F)(F)F (single isomer, unassigned) [Example 167a]

IC50 (KRAS G12C): ≤ 100 nM | IC50 [1, 2]: ≤ 100 nM
Compound: Cc1cc2c(nc(OC[C@@H]3CCCN3C)c3nnn([C@H]4CCN(C(=O)/C=C/C(F)F)[C@H](CC#N)C4)c32)c(F)c1-c1cccnc1C(F)(F)F (single isomer, unassigned) [Example 168a]

IC50 (KRAS G12C): ≤ 100 nM | IC50 [1, 2]: ≤ 100 nM
Compound: CC#CC(=O)N1CC[C@H](n2nnc3c(N4CC(N(C)C)C4)nc4c(F)c(-c5c(C)c(Cl)cc6[nH]ncc56)c(Cl)cc4c32)C[C@H]1CC#N (single isomer, unassigned) [Example 178a]

IC50 (KRAS G12C): ≤ 100 nM | IC50 [1, 2]: ≤ 100 nM
Compound: C=CC(=O)N1CC[C@H](n2nnc3c(N4CC(N(C)C)C4)nc4c(F)c(-c5c(C)c(Cl)cc6[nH]ncc56)c(Cl)cc4c32)C[C@H]1CC#N (single isomer, unassigned) [Example 185a]
